The numbers were not newly measured in patent US10045978B2 (AB SCIENCE, priority 2010, dated 2018), which cites them from elsewhere.

Where two headings read alike, the source gives them in different places.

Data set [1] relates to patients with WHO-defined systemic mastocytosis (SM). To be noted: cited from earlier work.
The subject of the next data set is mastocytosis patients. As to conditions: in vivo; cited from earlier work.
In another data set the test system is patients. As to conditions: of patients; cited from earlier work.
The test system of data set [2] is mast cells carrying the D816V c-Kit mutation. As to conditions: in vitro; cited from earlier work.
For data set [3], the system named is indolent mastocytosis patients. To be noted: cited from earlier work.
Setting [4] is: entire evaluable study population (N=108).
Setting [5] is: patients with indolent SM (N=22).

As for `NC(=O)NO` [hydroxyurea], in data set [1] (setting [4]), the major response rate is given as 0%. For the same molecule, the overall response rate in data set [1] (setting [4]) is 19%; in data set [1] (setting [5]), 0%.

As to interferon-alpha, the major response rate in data set [1] (setting [4]) was 18%. Further, the overall response rate is 53% in data set [1] (setting [4]) and 60% in data set [1] (setting [5]).

Turning to `Nc1nc(Cl)nc2c1ncn2[C@H]1C[C@H](O)[C@@H](CO)O1` [Cladribine], the “cases with reduced mast cell tumor burden” value in the data set with mastocytosis patients was “up to 50%”. Also, in data set [1] (setting [4]), the major response rate is given as 37%. For the same molecule, the overall response rate in data set [1] (setting [4]) was 55%; in data set [1] (setting [5]), 56%.

As for `Cc1ccc(NC(=O)c2ccc(CN3CCN(C)CC3)cc2)cc1Nc1nccc(-c2cccnc2)n1` [imatinib], the “grade 4 neutropaenia” value in the data set with patients was 5%. Besides, the “response of mast cells carrying the D816V c-Kit mutation” value in data set [2] is “resistant”. For the same molecule, the “patients reporting symptomatic improvements” value in data set [3] was 6/11. For the same molecule, the overall response rate in data set [1] (c-Kit D816V positive SM patients) is 17%; in data set [1] (setting [4]) it was 18%; in data set [1] (setting [5]) it was 14%. For the same molecule, the major response rate in data set [1] (setting [4]) was 9%.
